The source of these data is PubChem BioAssay (NCI).

As usually defined, the GI50 is the concentration giving 50% growth inhibition. A word on the TGI: it is the concentration at which net growth stops. Low values mean greater sensitivity of the cells, high ones lower sensitivity of the cells.

Test systems include ACHN renal; MCF7 breast; SF-539 CNS; MALME-3M melanoma; SF-268 CNS; SK-MEL-2 melanoma; PC-3 prostate; SK-MEL-5 melanoma; HOP-62 NSCLC; SF-295 CNS.
Common to all, as to test: DTP human tumour cell line panel, 48 h

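Growth conditions: 96-well plates. Treatment: test compound, 48 hours, 5 concentrations. Analysis: linear interpolation between bracketing concentrations; unreached endpoints set to highest concentration. Abbreviation: GI50, concentration required for 50% inhibition of growth. The concentration for full growth arrest is given as TGI.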

As to `O=C(Nc1cc(-c2ccccc2)[nH]n1)c1ccc(Cl)cc1`, the GI50 with ACHN renal was 5.27 µM; in the experiment on MCF7 breast, over 100 µM; in the experiment with SF-539 CNS it was 17.9 µM; in the experiment with MALME-3M melanoma, 12.1 µM; with SF-268 CNS, 28.6 µM; in the experiment with SK-MEL-2 melanoma, 6.97 µM. The GI50 in the experiment with PC-3 prostate is 37.4 µM; in the experiment with SK-MEL-5 melanoma, over 100 µM; in the experiment with HOP-62 NSCLC, 20.7 µM; in the experiment on SF-295 CNS it was 1.91 µM. Moreover, the total growth inhibition concentration (TGI) in the experiment with ACHN renal, in the experiment with MCF7 breast, with SF-539 CNS, in the experiment on MALME-3M melanoma, with SF-268 CNS and with SK-MEL-2 melanoma was over 100 µM throughout. In addition, the TGI in the experiment with PC-3 prostate, in the experiment with SK-MEL-5 melanoma, in the experiment with HOP-62 NSCLC and in the experiment with SF-295 CNS was over 100 µM throughout.
Regarding `CC1=C(C)C(=O)O[C@@H]([C@](C)(O)[C@]2(O)CC[C@@]3(O)[C@@H]4C[C@H]5O[C@]56CC=CC(=O)[C@]6(C)[C@H]4CC[C@]23C)C1`, the GI50 in the experiment with ACHN renal is 0.29 µM; in the experiment with MCF7 breast it was 0.0668 µM; with SF-539 CNS, 0.272 µM; with MALME-3M melanoma, 0.382 µM; in the experiment on SF-268 CNS it was 0.424 µM; in the experiment on SK-MEL-2 melanoma it was 0.0761 µM. For the same compound, the GI50 with PC-3 prostate was 0.247 µM; in the experiment on SK-MEL-5 melanoma, 0.269 µM; in the experiment on HOP-62 NSCLC, 0.292 µM; in the experiment on SF-295 CNS, 0.62 µM. Moreover, the TGI worked out at 1.45 µM with ACHN renal; 2.8 µM in the experiment on MCF7 breast; 1.62 µM with SF-539 CNS; 3.4 µM in the experiment with MALME-3M melanoma; 2.35 µM with SF-268 CNS; 0.481 µM in the experiment on SK-MEL-2 melanoma. Also, the TGI in the experiment with PC-3 prostate is 5.97 µM; with SK-MEL-5 melanoma, 1.43 µM; in the experiment on HOP-62 NSCLC, 3.39 µM; with SF-295 CNS, 14.7 µM.
Consider `CNc1nc(NC2CCCC2)nc(Sc2ccc(OC)cc2)n1`, for which the GI50 in the experiment with ACHN renal, in the experiment with MCF7 breast, in the experiment on SF-539 CNS, in the experiment on MALME-3M melanoma, in the experiment on SF-268 CNS and in the experiment with SK-MEL-2 melanoma was over 10 µM in each case. In addition, the GI50 with PC-3 prostate, with SK-MEL-5 melanoma, in the experiment on HOP-62 NSCLC and in the experiment with SF-295 CNS was over 10 µM throughout. In addition, the TGI in the experiment with ACHN renal, in the experiment with MCF7 breast, with SF-539 CNS, in the experiment on MALME-3M melanoma, in the experiment on SF-268 CNS and with SK-MEL-2 melanoma was over 10 µM each time. In addition, the TGI in the experiment on PC-3 prostate, in the experiment with SK-MEL-5 melanoma, in the experiment on HOP-62 NSCLC and with SF-295 CNS was over 10 µM each time.
